According to PubChem BioAssay AID256 (DTP/NCI, 2004):
Values joined by “and” are separate entries in the source; they are usually repeats but may differ in a detail not shown here. Equal entries are not always repeated. Toxic doses and inconclusive results are not listed.

Test system: CD2F1 mice, L1210 leukemia ip, survival T/C
Assay: NCI In Vivo Anticancer Drug Screen. Data for tumor model L1210 Leukemia (intraperitoneal) in CD2F1 (CDF1) mice
Settings: higher = longer survival
Outline: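 Mice carrying a transplanted tumor received test compound or vehicle alone. The value is the measurement in the treated group divided by that in the vehicle-treated control group.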

[1] = endpoint: mean survival time, dose: 100.0 mg/kg/injection, schedule: Q01DX009 (ip), vehicle: saline with Tween-80
[2] = endpoint: mean survival time, dose: 200.0 mg/kg/injection, schedule: Q01DX009 (ip), vehicle: saline with Tween-80
[3] = endpoint: mean survival time, dose: 100.0 mg/kg/injection, schedule: Q04DX002 (ip), vehicle: saline with Tween-80
[4] = endpoint: mean survival time, dose: 200.0 mg/kg/injection, schedule: Q04DX002 (ip), vehicle: saline with Tween-80
[5] = endpoint: median survival time, dose: 10.0 mg/kg/injection, schedule: Q04DX003 (ip), vehicle: saline
[6] = endpoint: median survival time, dose: 20.0 mg/kg/injection, schedule: Q04DX003 (ip), vehicle: saline
[7] = endpoint: median survival time, dose: 40.0 mg/kg/injection, schedule: Q04DX003 (ip), vehicle: saline
[8] = endpoint: median survival time, dose: 80.0 mg/kg/injection, schedule: Q04DX003 (ip), vehicle: saline
[9] = endpoint: mean survival time, dose: 100.0 mg/kg/injection, schedule: Q04DX003 (ip), vehicle: saline with Tween-80
[10] = endpoint: mean survival time, dose: 200.0 mg/kg/injection, schedule: Q04DX003 (ip), vehicle: saline with Tween-80
[11] = endpoint: mean survival time, dose: 400.0 mg/kg/injection, schedule: Q04DX003 (ip), vehicle: saline with Tween-80
[12] = endpoint: mean survival time, dose: 100.0 mg/kg/injection, schedule: Q01DX001 (ip), vehicle: saline with Tween-80
[13] = endpoint: mean survival time, dose: 200.0 mg/kg/injection, schedule: Q01DX001 (ip), vehicle: saline with Tween-80
[14] = endpoint: mean survival time, dose: 400.0 mg/kg/injection, schedule: Q01DX001 (ip), vehicle: saline with Tween-80

## CN/N=C/c1ccc(O)c(OC)c1
[1]
  T/C: 91 % of control
[2]
  T/C: 87 % of control

## CC(C)(C)C(=O)OCC1OC(n2ccc(O)cc2=O)C(O)C1O (configuration not stated)
endpoint: median survival time, dose: 67.0 mg/kg/injection, schedule: Q01DX009 (ip), vehicle: saline + Tween-80 + alcohol
  T/C: 168 % of control
endpoint: median survival time, dose: 100.0 mg/kg/injection, schedule: Q01DX009 (ip), vehicle: saline + Tween-80 + alcohol
  T/C: 163 % of control
endpoint: median survival time, dose: 150.0 mg/kg/injection, schedule: Q01DX009 (ip), vehicle: saline + Tween-80 + alcohol
  T/C: 150 % of control
endpoint: median survival time, dose: 225.0 mg/kg/injection, schedule: Q01DX009 (ip), vehicle: saline + Tween-80 + alcohol
  T/C: 154 % of control

## COC(=O)C(Cc1ccc(O)cc1)NC(=O)C(C)NC(=O)OCc1ccccc1 (configuration not stated)
[1]
  T/C: 92 % of control
[2]
  T/C: 93 % of control
endpoint: mean survival time, dose: 400.0 mg/kg/injection, schedule: Q01DX009 (ip), vehicle: saline with Tween-80
  T/C: 88 % of control

## O=[N+]([O-])c1ccc(S(=O)(=O)O)cc1
endpoint: mean survival time, dose: 100.0 mg/kg/injection, schedule: Q01DX001 (ip), vehicle: saline
  T/C: 95 % of control
endpoint: mean survival time, dose: 200.0 mg/kg/injection, schedule: Q01DX001 (ip), vehicle: saline
  T/C: 105 % of control
endpoint: mean survival time, dose: 400.0 mg/kg/injection, schedule: Q01DX001 (ip), vehicle: saline
  T/C: 100 % of control

## CCCCCCCCN1C(=O)CCC1=O
[3]
  T/C: 103 % of control
[4]
  T/C: 91 % of control

## C1CCC(C2CCCC[N-]2)[N-]C1.O=C(O)C1CCC[N-]1.[Cl][Pt] (configuration not stated)
[5]
  T/C: 103 % of control
[6]
  T/C: 101 % of control
[7]
  T/C: 98 % of control
[8]
  T/C: 98 % of control and 104 % of control
endpoint: median survival time, dose: 160.0 mg/kg/injection, schedule: Q04DX003 (ip), vehicle: saline
  T/C: 104 % of control

## CC(C)c1cc(C(C)C)n2nc(N)nc2n1
[9]
  T/C: 106 % of control
[10]
  T/C: 98 % of control
[11]
  T/C: 97 % of control

## OCC1OC(n2ncc3c(NCc4ccco4)ncnc32)C(O)C1O (configuration not stated)
endpoint: mean survival time, dose: 25.0 mg/kg/injection, schedule: Q01DX009 (ip), vehicle: water
  T/C: 95 % of control
endpoint: mean survival time, dose: 50.0 mg/kg/injection, schedule: Q01DX009 (ip), vehicle: water
  T/C: 95 % of control
endpoint: mean survival time, dose: 100.0 mg/kg/injection, schedule: Q01DX009 (ip), vehicle: water
  T/C: 100 % of control
endpoint: mean survival time, dose: 200.0 mg/kg/injection, schedule: Q01DX009 (ip), vehicle: water
  T/C: 104 % of control
endpoint: mean survival time, dose: 400.0 mg/kg/injection, schedule: Q01DX009 (ip), vehicle: water
  T/C: 106 % of control

## C1CCC(C2CCCC[N-]2)[N-]C1.CCC(C)C([NH-])C(=O)O.[Cl][Pt] (configuration not stated)
[5]
  T/C: 101 % of control
[6]
  T/C: 98 % of control
[7]
  T/C: 101 % of control
[8]
  T/C: 98 % of control

## CC(C)(CO)C(O)C(=O)NCCS(=O)(=O)c1ccc(F)cc1 (configuration not stated)
[12]
  T/C: 105 % of control
[1]
  T/C: 89 % of control
[13]
  T/C: 95 % of control
[2]
  T/C: 89 % of control
[14]
  T/C: 100 % of control

## Cc1ccc(OCC(=O)C2CSc3ccc(Cl)cc32)cc1 (configuration not stated)
[9]
  T/C: 97 % of control
[10]
  T/C: 94 % of control
[11]
  T/C: 111 % of control

## O=C1OC(/C=C\c2ccccc2)=NC/1=C\c1cc(Br)cc(Br)c1O
[3]
  T/C: 94 % of control
[4]
  T/C: 98 % of control
endpoint: mean survival time, dose: 400.0 mg/kg/injection, schedule: Q04DX002 (ip), vehicle: saline with Tween-80
  T/C: 105 % of control

## CC(C)CCCC(C)C1CCC2C3C(=O)C4=CC(=O)CCC4(C)C3CCC12C (configuration not stated)
[12]
  T/C: 94 % of control
[13]
  T/C: 96 % of control
[14]
  T/C: 90 % of control

## N=C(N)c1ccc(OCCOc2ccc(N)cc2)cc1
[12]
  T/C: 103 % of control
[13]
  T/C: 103 % of control
